Here are results for two compounds from publication PMC4413193, “3-[4-(1H-Indol-3-yl)-1,3-thiazol-2-yl]-1H-pyrrolo[2,3-b]pyridines, Nortopsentin Analogues with Antiproliferative Activity” (Marine Drugs, 2015).

Assay [1] deals with HL-60(TB). Description: NCI-60 in vitro tumor cell growth inhibition, HL-60(TB) (leukemia). The assay is classed as cell-based. The conditions noted are these: Homo sapiens, five concentration levels 10^−4–10^−8 M. The procedure: (§1) All the synthesized thiazoles 3a–k were evaluated by the National Cancer Institute (Bethesda MD) for cytotoxicity against the NCI-60 cell line panel using standard protocols. Initially, the selected derivatives 3c,d,g,h,j,k were tested at a single dose (10^−5 M) on the full panel of approximately 60 human tumor cell lines derived from 9 human cancer cell types, that have been grouped in disease sub-panels including leukemia, non-small-cell lung, colon, central nervous system (CNS), melanoma, ovarian, renal, prostate and breast cancers (data not shown). Compounds 3d and 3k were further selected for full evaluation at five concentration levels (10^−4–10^−8 M).
(§2) The antitumor activity of compounds 3d and 3k was given by three parameters for each cell line: GI50 (the molar concentration of the compound that inhibits 50% net cell growth), TGI (the molar concentration of the compound leading to total inhibition of net cell growth), and LC50 (the molar concentration of the compound that induces 50% net cell death). The average values of mean graph midpoint (MG_MID) were calculated for each of these parameters.

The subject of assay [2] is HOP-92. Description: NCI-60 in vitro tumor cell growth inhibition, HOP-92 (non-small cell lung cancer). The assay is classed as cell-based. The conditions noted are these: Homo sapiens, five concentration levels. As to the method: as §1, §2
Assay [3] concerns NCI-H460. Description: NCI-60 in vitro tumor cell growth inhibition, NCI-H460 (non-small cell lung cancer). Type of assay: cell-based. Particulars: Homo sapiens, five concentration levels. The procedure:
as §1, §2

Assay [4] has as its system HCT-116. Description: NCI-60 in vitro tumor cell growth inhibition, HCT-116 (colon cancer). The assay is classed as cell-based. The conditions noted are these: Homo sapiens, five concentration levels. As to the method:
as §1, §2

In assay [5] the test system is HT29. The assay can be described thus: NCI-60 in vitro tumor cell growth inhibition, HT29 (colon cancer). The assay is classed as cell-based. Particulars: Homo sapiens, HT-29, five concentration levels. The procedure:
as §1, §2

Assay [6] relates to KM12. The assay can be described thus: NCI-60 in vitro tumor cell growth inhibition, KM12 (colon cancer). Type of assay: cell-based. Particulars: Homo sapiens, five concentration levels. The procedure:
as §1, §2

The subject of assay [7] is SW-620. The assay can be described thus: NCI-60 in vitro tumor cell growth inhibition, SW-620 (colon cancer). The conditions noted are these: Homo sapiens, five concentration levels. The assay is classed as cell-based. The procedure: as §1, §2
Assay [8] has as its system SF-539. Description: NCI-60 in vitro tumor cell growth inhibition, SF-539 (CNS cancer). The assay is classed as cell-based. The conditions noted are these: Homo sapiens, five concentration levels. As to the method: as §1, §2
Assay [9] relates to SNB-19. The assay can be described thus: NCI-60 in vitro tumor cell growth inhibition, SNB-19 (CNS cancer). Type of assay: cell-based. The conditions noted are these: Homo sapiens, five concentration levels. As to the method: as §1, §2
For assay [10], the system named is SNB-75. Description: NCI-60 in vitro tumor cell growth inhibition, SNB-75 (CNS cancer). Type of assay: cell-based. Particulars: Homo sapiens, five concentration levels. The procedure:
as §1, §2

Assay [11] deals with M14. The assay can be described thus: NCI-60 in vitro tumor cell growth inhibition, M14 (melanoma). Type of assay: cell-based. Particulars: Homo sapiens, five concentration levels. The procedure:
as §1, §2

In assay [12] the test system is SK-MEL-5. Description: NCI-60 in vitro tumor cell growth inhibition, SK-MEL-5 (melanoma). Type of assay: cell-based. The conditions noted are these: Homo sapiens, five concentration levels. The procedure: as §1, §2
The test system of assay [13] is OVCAR-4. The assay can be described thus: NCI-60 in vitro tumor cell growth inhibition, OVCAR-4 (ovarian cancer). The conditions noted are these: Homo sapiens, five concentration levels. The assay is classed as cell-based. As to the method: as §1, §2
The test system of assay [14] is OVCAR-8. The assay can be described thus: NCI-60 in vitro tumor cell growth inhibition, OVCAR-8 (ovarian cancer). Type of assay: cell-based. The conditions noted are these: Homo sapiens, five concentration levels. The procedure: as §1, §2
Assay [15] concerns SN12C. Description: NCI-60 in vitro tumor cell growth inhibition, SN12C (renal cancer). Type of assay: cell-based. The conditions noted are these: Homo sapiens, five concentration levels. As to the method: as §1, §2
Assay [16] has as its system TK-10. Description: NCI-60 in vitro tumor cell growth inhibition, TK-10 (renal cancer). The assay is classed as cell-based. The conditions noted are these: Homo sapiens, five concentration levels. The procedure:
as §1, §2

Assay [17] deals with UO-31. The assay can be described thus: NCI-60 in vitro tumor cell growth inhibition, UO-31 (renal cancer). Type of assay: cell-based. Particulars: Homo sapiens, five concentration levels. The procedure: as §1, §2
The subject of assay [18] is PC-3. The assay can be described thus: NCI-60 in vitro tumor cell growth inhibition, PC-3 (prostate cancer). Type of assay: cell-based. Particulars: Homo sapiens, five concentration levels. As to the method:
as §1, §2

In assay [19] the test system is HS 578T. Description: NCI-60 in vitro tumor cell growth inhibition, HS 578T (breast cancer). The assay is classed as cell-based. Particulars: Homo sapiens, five concentration levels. As to the method:
as §1, §2

In assay [20] the test system is leukemia cancer subpanel cell lines. Description: NCI-60 screen, leukemia subpanel summary. Type of assay: cell-based. The conditions noted are these: Homo sapiens; range over the leukemia subpanel; read-out: GI50 of all the leukemia subpanel cell lines (range). The procedure: as §1, §2
In assay [21] the test system is HepG2 cells. The assay can be described thus: Cell cycle analysis by flow cytometry (PI staining). The assay is classed as cell-based, human. The conditions noted are these: HepG2, 24 h treatment. The procedure:
The distribution of HepG2 cells in the cell cycle phases after 24 h treatment with the two norptopsentin analogues, was assessed by flow cytometric analysis after staining of DNA with PI.
Cell cycle stage was analyzed by flow cytometry. Aliquots of 1 × 10^6 cells were harvested by centrifugation, washed with PBS and incubated in the dark in a PBS solution containing 20 μg/mL propidium iodide (PI) and 200 μg/mL RNase, for 30 min, at room temperature. Then samples were subjected to fluorescence-activated cell sorting (FACS) analysis by Epics XL™ flow cytometer using Expo32 software (Beckman Coulter, Fullerton, CA, USA). At least 1 × 10^4 cells were analyzed for each sample.
In general terms: Flow cytometry measures light scatter and fluorescence of single cells or particles in a stream.

Assay [22] deals with NCI-H322M. The assay can be described thus: NCI-60 in vitro tumor cell growth inhibition, NCI-H322M (non-small cell lung cancer). Type of assay: cell-based. The conditions noted are these: Homo sapiens, five concentration levels. The procedure: as §1, §2

The term GI50 denotes the concentration at which growth is held to half of that of the control.

In the case of `Cn1cc(-c2nc(-c3c[nH]c4ccccc34)cs2)c2cccnc21` [Compound 3k, 3-[4-(1H-Indol-3-yl)-1,3-thiazol-2-yl]-1-methyl-1H-pyrrolo[2,3-b]pyridine], the GI50 in [1] turned out to be 320 nM; in [2], 310 nM; in [3], 370 nM; in assay [4], 390 nM; in assay [5], 190 nM; in assay [6], 400 nM. Also, the GI50 came to 300 nM in assay [7]; 250 nM in [8]; 640 nM in [9]; 140 nM in [10]; 280 nM in [11]; 270 nM in assay [12]. The GI50 in assay [13] amounted to 520 nM; in assay [14] it was 820 nM; in assay [15] it was 5480 nM; in [16], 990 nM; in assay [17] it was 690 nM; in [18], 560 nM. Moreover, the GI50 in assay [19] was 660 nM; in assay [20], 120 to 660 nM. For the same compound, the “distribution of HepG2 cells in the cell cycle phases” value in [21] is “significant dose-dependent decrease in the percentage of cells in the G0/G1 and S phases, accompanied by a concomitant percentage increase of cells in the G2/M phase, and appearance of a subG1-cell population”.

Consider `Cn1cc(-c2csc(-c3cn(C)c4ncccc34)n2)c2ccccc21` [Compound 3d, 1-Methyl-3-[4-(1-methyl-1H-indol-3-yl)-1,3-thiazol-2-yl]-1H-pyrrolo[2,3-b]pyridine], for which the GI50 was 290 nM in assay [1]; 350 nM in [2]; 760 nM in assay [22]; 300 nM in assay [3]; 370 nM in assay [4]; 250 nM in assay [5]. Further, the GI50 came to 210 nM in assay [6]; 220 nM in assay [7]; 180 nM in assay [8]; 630 nM in assay [9]; 160 nM in assay [10]; 270 nM in [11]. Moreover, the GI50 in assay [12] was found to be 240 nM; in [13] it was 7220 nM; in assay [14] it was 660 nM; in [15], 12100 nM; in assay [16], 600 nM; in assay [17], 900 nM. The GI50 in assay [18] was 460 nM; in assay [19], 590 nM; in [20], 60 to 670 nM. In addition, in [21], the “distribution of HepG2 cells in the cell cycle phases” value is “significant dose-dependent decrease in the percentage of cells in the G0/G1 and S phases, accompanied by a concomitant percentage increase of cells in the G2/M phase, and appearance of a subG1-cell population”.
